The values that follow come from patent US20200239530A1, “COMPOUNDS AND METHODS OF MODULATING PROTEIN DEGRADATION” (Vividion Therapeutics, Inc., priority 2017, published 2020).

Assay [1] concerns the target T1, PPCDC Phosphopantothenoylcysteine decarboxylase (Homo sapiens, UniProt Q96CD2).
T1 construct: Cells were resuspended in cold PBS on ice and sonicated with a probe sonicator to achieve lysis; endogenous in cells
T1 sequence (Q96CD2 1-204): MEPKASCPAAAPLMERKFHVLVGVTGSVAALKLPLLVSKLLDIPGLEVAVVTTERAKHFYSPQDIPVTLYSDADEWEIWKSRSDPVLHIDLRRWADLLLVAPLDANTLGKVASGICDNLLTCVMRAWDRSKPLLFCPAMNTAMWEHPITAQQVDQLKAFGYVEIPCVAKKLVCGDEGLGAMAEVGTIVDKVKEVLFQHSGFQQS
Nature of the assay: Cysteine liganding, probe competition. Format: binding. The gist of the method: (§1)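 Read-out is loss of desthiobiotin iodoacetamide labelling at cysteines, measured on streptavidin-enriched tryptic peptides. Compound preincubation ran 1 hr at 25° C in PBS lysate holding 5 mg/ml proteome before the probe was added.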

In assay [2] the target is T2, ZNF644 Zinc finger protein 644 (Homo sapiens, UniProt Q9H582).
T2 construct: Cells were resuspended in cold PBS on ice and sonicated with a probe sonicator to achieve lysis; endogenous in cells
T2 sequence (Q9H582 1-1327): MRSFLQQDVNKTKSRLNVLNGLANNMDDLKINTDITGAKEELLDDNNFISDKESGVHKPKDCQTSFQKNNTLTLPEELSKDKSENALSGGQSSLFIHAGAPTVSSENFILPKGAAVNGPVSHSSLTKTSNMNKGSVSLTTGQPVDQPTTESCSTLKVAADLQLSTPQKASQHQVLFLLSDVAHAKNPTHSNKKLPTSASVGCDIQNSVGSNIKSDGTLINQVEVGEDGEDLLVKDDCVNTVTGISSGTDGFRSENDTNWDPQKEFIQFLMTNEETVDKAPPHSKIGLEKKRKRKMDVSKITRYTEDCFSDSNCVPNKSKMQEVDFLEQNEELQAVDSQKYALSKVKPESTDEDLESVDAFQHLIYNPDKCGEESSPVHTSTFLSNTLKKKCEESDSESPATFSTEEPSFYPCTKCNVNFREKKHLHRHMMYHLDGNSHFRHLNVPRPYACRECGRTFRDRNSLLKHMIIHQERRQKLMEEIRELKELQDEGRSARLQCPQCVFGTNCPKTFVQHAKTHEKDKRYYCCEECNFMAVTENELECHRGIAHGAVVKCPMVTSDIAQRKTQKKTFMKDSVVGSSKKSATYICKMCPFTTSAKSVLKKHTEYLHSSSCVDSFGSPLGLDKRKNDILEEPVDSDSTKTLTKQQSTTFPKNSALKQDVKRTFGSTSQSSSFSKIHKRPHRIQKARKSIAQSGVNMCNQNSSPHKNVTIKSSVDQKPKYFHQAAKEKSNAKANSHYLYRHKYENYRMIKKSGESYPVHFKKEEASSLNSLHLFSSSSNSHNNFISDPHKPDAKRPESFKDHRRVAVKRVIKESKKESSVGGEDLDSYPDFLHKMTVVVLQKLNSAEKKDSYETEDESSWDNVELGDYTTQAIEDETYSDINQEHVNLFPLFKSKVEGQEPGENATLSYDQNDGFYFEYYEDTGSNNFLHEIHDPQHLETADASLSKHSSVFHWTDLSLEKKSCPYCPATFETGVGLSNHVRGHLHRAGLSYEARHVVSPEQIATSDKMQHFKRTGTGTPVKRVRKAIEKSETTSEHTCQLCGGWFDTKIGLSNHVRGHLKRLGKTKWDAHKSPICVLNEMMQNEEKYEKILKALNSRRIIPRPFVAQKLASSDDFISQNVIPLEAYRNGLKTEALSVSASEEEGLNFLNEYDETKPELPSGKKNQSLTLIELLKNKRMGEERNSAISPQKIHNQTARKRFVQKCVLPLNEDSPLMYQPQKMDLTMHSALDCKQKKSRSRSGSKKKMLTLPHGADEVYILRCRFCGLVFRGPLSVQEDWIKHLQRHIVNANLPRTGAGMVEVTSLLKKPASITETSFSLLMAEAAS
Kind of assay: Cysteine liganding, probe competition. The format is binding. The gist of the method:
as §1

Regarding `COc1ccc2c(c1)CCCN2C(=O)CCl` [KB02], the Liganded entry is “YES” in assay [1] (PPCDC Res# 173, uniprot Q96CD2) and “YES” in assay [2] (ZNF644 Res# 507, uniprot Q9H582).
For the compound `O=C(CCl)Nc1cc(C(F)(F)F)cc(C(F)(F)F)c1` [KBO3], in assay [1] (uniprot Q96CD2), the “100 Max” value came out at 23.85, the 100 ave was found to be 13.215, the “500 Max” value amounted to 71.73 and the 500 ave is on record as 71.73. Besides, in assay [2] (uniprot Q9H582), the “100 Max” value was 24.53, the 100 ave is recorded as 11.2825 and the 500 ave was found to be 67.685. For the same compound, in assay [2] (uniprot Q9H582, in % (unit assumed)), the “500 Max” value turned out to be 72.77.
